Target: T1, wild-type V1-ATPase (Enterococcus hirae, UniProt Q08636+Q08637)
T1 construct: gene ntpA
Conditions: MgCl2; pH 6.5, 25 °C; ATP-regenerating system

Nc1ncnc2c1ncn2[C@@H]1O[C@H](COP(=O)(O)OP(=O)(O)OP(=O)(O)O)[C@@H](O)[C@H]1O [ATP]
coupled ATPase assay (NADH, pyruvate kinase / lactate dehydrogenase): We also measured ATPase activity of the wild-type and designed V1

From paper PMC10624635, “Design of allosteric sites into rotary motor V1-ATPase by restoring lost function of pseudo-active sites” (Nature Chemistry, 2023)
